One substance from US9320270B2, “Method of field application of natural pesticides with reduced toxicity and high efficacy by means of microencapsulation” (priority 2009, dated 2016) can be followed below.

A short description of this data set: decomposition during emulsification at 70° C. It counts as physicochemical. Conditions: without antioxidants and weak acids. The method, then: The process of microencapsulation is performed adding the oil phase to the first water phase under high shear stress, being emulsified at 70° C.

As to abamectin, the decomposition during emulsification is reported as 5-25%.
